Experimental data as given in PubChem BioAssay (NCI).
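96-well plates; 48 h exposure; 5 concentrations. Endpoints by linear interpolation between flanking doses. Not reached: highest tested concentration assigned. Here, GI50 denotes the concentration required for 50% inhibition of growth. TGI: concentration producing complete growth inhibition.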

Key:
Assay in all cases: NCI anticancer screen, dose series, 48 h
786-0 renal = tested on: 786-0 renal
A549 NSCLC = tested on: A549 NSCLC
ACHN renal = tested on: ACHN renal
CAKI-1 renal = tested on: CAKI-1 renal
CCRF-CEM leukemia = tested on: CCRF-CEM leukemia
COLO 205 colon = tested on: COLO 205 colon
DLD-1 colon = tested on: DLD-1 colon
DMS 273 small cell lung = tested on: DMS 273 small cell lung
EKVX NSCLC = tested on: EKVX NSCLC
HCC-2998 colon = tested on: HCC-2998 colon
HCT-116 colon = tested on: HCT-116 colon
HCT-15 colon = tested on: HCT-15 colon
HL-60(TB) leukemia = tested on: HL-60(TB) leukemia
HOP-18 NSCLC = tested on: HOP-18 NSCLC
HOP-62 NSCLC = tested on: HOP-62 NSCLC
HOP-92 NSCLC = tested on: HOP-92 NSCLC
HT29 colon = tested on: HT29 colon
IGROV1 ovarian = tested on: IGROV1 ovarian
K-562 leukemia = tested on: K-562 leukemia
KM12 colon = tested on: KM12 colon
KM20L2 colon = tested on: KM20L2 colon
LOX IMVI melanoma = tested on: LOX IMVI melanoma
LXFL 529 NSCLC = tested on: LXFL 529 NSCLC
M14 melanoma = tested on: M14 melanoma
M19-MEL melanoma = tested on: M19-MEL melanoma
MALME-3M melanoma = tested on: MALME-3M melanoma
MOLT-4 leukemia = tested on: MOLT-4 leukemia
NCI-H226 lung = tested on: NCI-H226 lung
NCI-H23 lung = tested on: NCI-H23 lung
NCI-H460 lung = tested on: NCI-H460 lung
NCI-H522 lung = tested on: NCI-H522 lung
OVCAR-3 ovarian = tested on: OVCAR-3 ovarian
OVCAR-4 ovarian = tested on: OVCAR-4 ovarian
OVCAR-5 ovarian = tested on: OVCAR-5 ovarian
OVCAR-8 ovarian = tested on: OVCAR-8 ovarian
RPMI-8226 leukemia = tested on: RPMI-8226 leukemia
SF-268 CNS = tested on: SF-268 CNS
SF-295 CNS = tested on: SF-295 CNS
SF-539 CNS = tested on: SF-539 CNS
SK-MEL-2 melanoma = tested on: SK-MEL-2 melanoma
SK-MEL-28 melanoma = tested on: SK-MEL-28 melanoma
SK-MEL-5 melanoma = tested on: SK-MEL-5 melanoma
SK-OV-3 ovarian = tested on: SK-OV-3 ovarian
SN12C renal = tested on: SN12C renal
SNB-19 CNS = tested on: SNB-19 CNS
SNB-75 CNS = tested on: SNB-75 CNS
SNB-78 CNS = tested on: SNB-78 CNS
SW-620 colon = tested on: SW-620 colon
TK-10 renal = tested on: TK-10 renal
U251 CNS = tested on: U251 CNS
UACC-257 melanoma = tested on: UACC-257 melanoma
UACC-62 melanoma = tested on: UACC-62 melanoma
UO-31 renal = tested on: UO-31 renal
XF 498 CNS = tested on: XF 498 CNS
A498 renal = tested on: A498 renal
DMS 114 small cell lung = tested on: DMS 114 small cell lung
RXF 393 renal = tested on: RXF 393 renal

## CC[PH+](CC)CC.CC[PH+](CC)CC.[Au]
786-0 renal
  GI50: 7.35 µM
  TGI: 19.7 µM
A549 NSCLC
  GI50: 22.8 µM
  TGI: 53.1 µM
ACHN renal
  GI50: 17.6 µM
  TGI: 31.4 µM
CAKI-1 renal
  GI50: 6.8 µM
  TGI: 13.5 µM
CCRF-CEM leukemia
  GI50: 2.04 µM
  TGI: 11.9 µM
COLO 205 colon
  GI50: 2.52 µM
  TGI: 7.32 µM
DLD-1 colon
  GI50: 5.52 µM
  TGI: 18.9 µM
DMS 273 small cell lung
  GI50: 17 µM
  TGI: 38.3 µM
EKVX NSCLC
  GI50: 5.83 µM
  TGI: 11.5 µM
HCC-2998 colon
  GI50: 20.7 µM
  TGI: 35.2 µM
HCT-116 colon
  GI50: 16 µM
  TGI: 32.9 µM
HCT-15 colon
  GI50: 6.24 µM
  TGI: 25.7 µM
HL-60(TB) leukemia
  GI50: 0.345 µM
  TGI: 2.09 µM
HOP-18 NSCLC
  GI50: 8 µM
  TGI: 22.1 µM
HOP-62 NSCLC
  GI50: 22 µM
  TGI: 36.6 µM
HOP-92 NSCLC
  GI50: 7.43 µM
  TGI: 15.2 µM
HT29 colon
  GI50: 16.3 µM
  TGI: 32.4 µM
IGROV1 ovarian
  GI50: 14.5 µM
  TGI: 34.3 µM
K-562 leukemia
  GI50: 5.98 µM
  TGI: 41.1 µM
KM12 colon
  GI50: 16.3 µM
  TGI: 33.3 µM
KM20L2 colon
  GI50: 17.3 µM
  TGI: 33.3 µM
LOX IMVI melanoma
  GI50: 8.67 µM
  TGI: 24.2 µM
LXFL 529 NSCLC
  GI50: 2.31 µM
  TGI: 6.33 µM
M14 melanoma
  GI50: 6.68 µM
  TGI: 22 µM
M19-MEL melanoma
  GI50: 4.06 µM
  TGI: 31.9 µM
MALME-3M melanoma
  GI50: 11.4 µM
  TGI: 24.7 µM
MOLT-4 leukemia
  GI50: 5.33 µM
  TGI: 24.1 µM
NCI-H226 lung
  GI50: 18.2 µM
  TGI: 37.5 µM
NCI-H23 lung
  GI50: 13.3 µM
  TGI: 28.6 µM
NCI-H460 lung
  GI50: 23.5 µM
  TGI: 60.9 µM
NCI-H522 lung
  GI50: 0.308 µM
  TGI: 1.25 µM
OVCAR-3 ovarian
  GI50: 18.2 µM
  TGI: 33.2 µM
OVCAR-4 ovarian
  GI50: 12.5 µM
  TGI: 25.1 µM
OVCAR-5 ovarian
  GI50: 25.8 µM
  TGI: 41.5 µM
OVCAR-8 ovarian
  GI50: 17.9 µM
  TGI: 38.1 µM
RPMI-8226 leukemia
  GI50: 3.87 µM
  TGI: 30.2 µM
SF-268 CNS
  GI50: 13.4 µM
  TGI: 30.1 µM
SF-295 CNS
  GI50: 13.5 µM
  TGI: 26.9 µM
SF-539 CNS
  GI50: 8.3 µM
  TGI: 25.3 µM
SK-MEL-2 melanoma
  GI50: 2.73 µM
  TGI: 15.8 µM
SK-MEL-28 melanoma
  GI50: 3.88 µM
  TGI: 16.9 µM
SK-MEL-5 melanoma
  GI50: 3.5 µM
  TGI: 17.5 µM
SK-OV-3 ovarian
  GI50: 20.9 µM
  TGI: 35.2 µM
SN12C renal
  GI50: 16.1 µM
  TGI: 31.4 µM
SNB-19 CNS
  GI50: 13.4 µM
  TGI: 26.4 µM
SNB-75 CNS
  GI50: 15 µM
  TGI: 29 µM
SNB-78 CNS
  GI50: 6.82 µM
  TGI: 53.1 µM
SW-620 colon
  GI50: 5.13 µM
  TGI: 15.6 µM
TK-10 renal
  GI50: 19.9 µM
  TGI: 35.7 µM
U251 CNS
  GI50: 8.21 µM
  TGI: 24.3 µM
UACC-257 melanoma
  GI50: 11.4 µM
  TGI: 24.4 µM
UACC-62 melanoma
  GI50: 3.9 µM
  TGI: 19.1 µM
UO-31 renal
  GI50: 21.4 µM
  TGI: 35.8 µM
XF 498 CNS
  GI50: 11 µM
  TGI: 26.4 µM

## O=C(CSSCC(=O)OCCS(=O)(=O)Nc1ccc(Br)cc1)OCCS(=O)(=O)Nc1ccc(Br)cc1
A498 renal
  TGI: 39.8 µM
A549 NSCLC
  TGI: > 100 µM
ACHN renal
  TGI: 82.8 µM
CAKI-1 renal
  TGI: 68.4 µM
CCRF-CEM leukemia
  TGI: > 100 µM
COLO 205 colon
  TGI: 62.2 µM
DLD-1 colon
  TGI: > 100 µM
DMS 114 small cell lung
  TGI: 29.3 µM
DMS 273 small cell lung
  TGI: 40.3 µM
EKVX NSCLC
  TGI: > 100 µM
HCC-2998 colon
  TGI: 25.9 µM
HCT-15 colon
  TGI: 48.5 µM
HL-60(TB) leukemia
  TGI: 38.7 µM
HOP-18 NSCLC
  TGI: > 100 µM
HOP-92 NSCLC
  TGI: 51.5 µM
HT29 colon
  TGI: 31.8 µM
IGROV1 ovarian
  TGI: 88.7 µM
K-562 leukemia
  TGI: > 100 µM
KM12 colon
  TGI: 30 µM
KM20L2 colon
  TGI: > 100 µM
LOX IMVI melanoma
  TGI: 42.3 µM
LXFL 529 NSCLC
  TGI: 34.1 µM
M14 melanoma
  TGI: 39.1 µM
M19-MEL melanoma
  TGI: 56.4 µM
MALME-3M melanoma
  TGI: 22.8 µM
MOLT-4 leukemia
  TGI: 15.4 µM
NCI-H23 lung
  TGI: 64 µM
NCI-H460 lung
  TGI: > 100 µM
NCI-H522 lung
  TGI: 24 µM
OVCAR-3 ovarian
  TGI: 37.6 µM
OVCAR-4 ovarian
  TGI: 33 µM
OVCAR-5 ovarian
  TGI: 84.7 µM
OVCAR-8 ovarian
  TGI: 45.2 µM
RPMI-8226 leukemia
  TGI: 83.7 µM
RXF 393 renal
  TGI: 16.8 µM
SF-268 CNS
  TGI: 63.2 µM
SF-295 CNS
  TGI: > 100 µM
SF-539 CNS
  TGI: 32.8 µM
SK-MEL-2 melanoma
  TGI: 79.6 µM
SK-MEL-28 melanoma
  TGI: 96.4 µM
SK-MEL-5 melanoma
  TGI: 26 µM
SK-OV-3 ovarian
  TGI: 89.8 µM
SN12C renal
  TGI: 59.8 µM
SNB-19 CNS
  TGI: > 100 µM
SNB-75 CNS
  TGI: 66.6 µM
SNB-78 CNS
  TGI: 71.3 µM
SW-620 colon
  TGI: 44.2 µM
TK-10 renal
  TGI: 87.8 µM
U251 CNS
  TGI: > 100 µM
UACC-257 melanoma
  TGI: 44.6 µM
UACC-62 melanoma
  TGI: 34.6 µM
UO-31 renal
  TGI: > 100 µM

## CC1=C(C(=O)CC(=O)C(=O)Nc2ccc(C)c(C)c2)Sc2ccccc2N1
786-0 renal
  TGI: > 100 µM
A498 renal
  TGI: > 100 µM
A549 NSCLC
  TGI: > 100 µM
ACHN renal
  TGI: > 100 µM
CAKI-1 renal
  TGI: > 100 µM
COLO 205 colon
  TGI: > 100 µM
DLD-1 colon
  TGI: > 100 µM
DMS 114 small cell lung
  TGI: > 100 µM
DMS 273 small cell lung
  TGI: > 100 µM
EKVX NSCLC
  TGI: > 100 µM
HCC-2998 colon
  TGI: > 100 µM
HCT-116 colon
  TGI: > 100 µM
HCT-15 colon
  TGI: > 100 µM
HOP-18 NSCLC
  TGI: > 100 µM
HOP-62 NSCLC
  TGI: > 100 µM
HOP-92 NSCLC
  TGI: > 100 µM
HT29 colon
  TGI: > 100 µM
IGROV1 ovarian
  TGI: > 100 µM
KM12 colon
  TGI: > 100 µM
KM20L2 colon
  TGI: > 100 µM
LOX IMVI melanoma
  TGI: > 100 µM
LXFL 529 NSCLC
  TGI: > 100 µM
M14 melanoma
  TGI: > 100 µM
M19-MEL melanoma
  TGI: > 100 µM
MALME-3M melanoma
  TGI: > 100 µM
NCI-H226 lung
  TGI: > 100 µM
NCI-H23 lung
  TGI: > 100 µM
NCI-H460 lung
  TGI: > 100 µM
NCI-H522 lung
  TGI: > 100 µM
OVCAR-3 ovarian
  TGI: > 100 µM
OVCAR-4 ovarian
  TGI: > 100 µM
OVCAR-5 ovarian
  TGI: > 100 µM
OVCAR-8 ovarian
  TGI: > 100 µM
RPMI-8226 leukemia
  TGI: > 100 µM
RXF 393 renal
  TGI: > 100 µM
SF-268 CNS
  TGI: > 100 µM
SF-295 CNS
  TGI: > 100 µM
SF-539 CNS
  TGI: > 100 µM
SK-MEL-28 melanoma
  TGI: > 100 µM
SK-MEL-5 melanoma
  TGI: > 100 µM
SK-OV-3 ovarian
  TGI: > 100 µM
SN12C renal
  TGI: > 100 µM
SNB-19 CNS
  TGI: > 100 µM
SNB-75 CNS
  TGI: > 100 µM
SNB-78 CNS
  TGI: > 100 µM
SW-620 colon
  TGI: > 100 µM
TK-10 renal
  TGI: > 100 µM
U251 CNS
  TGI: > 100 µM
UACC-257 melanoma
  TGI: > 100 µM
UACC-62 melanoma
  TGI: > 100 µM
UO-31 renal
  TGI: > 100 µM
XF 498 CNS
  TGI: > 100 µM
